The record followed here is PubChem BioAssay (NCI).

Among the test systems are SK-MEL-5 melanoma; EKVX NSCLC; M14 melanoma; K-562 leukemia; RXF 393 renal; A549 NSCLC; LOX IMVI melanoma; HOP-92 NSCLC; MDA-MB-435; RPMI-8226 leukemia.
Holding throughout (assay): NCI tumour cell line growth inhibition, 48 h

Where “and” joins values, the source holds several entries; their conditions need not be identical. Equal values may be shown once.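 Tested at 5 concentrations; 48 h exposure; 96-well plates; endpoints linearly interpolated, else capped at highest concentration. At the GI50, growth is halved. TGI is the concentration that stops growth completely.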

As for `CNc1cc(-c2cccc(OC(F)(F)F)c2)nc2ccc(N3CCCC3)cc12`, the GI50 in the experiment with SK-MEL-5 melanoma was 1.74 µM and 1.65 µM and 1.64 µM; with EKVX NSCLC, 1.64 µM and 1.57 µM and 1.74 µM; in the experiment on M14 melanoma, 1.64 µM and 1.72 µM and 1.69 µM; in the experiment with K-562 leukemia, 0.884 µM; in the experiment on RXF 393 renal it was 1.8 µM and 1.81 µM and 1.51 µM; in the experiment with A549 NSCLC, 1.79 µM and 1.66 µM and 1.75 µM. The GI50 was 1.71 µM and 1.74 µM in the experiment with LOX IMVI melanoma; 1.22 µM and 1.3 µM and 1.24 µM in the experiment on HOP-92 NSCLC; 1.59 µM and 1.71 µM and 1.63 µM in the experiment on MDA-MB-435; 1.71 µM with RPMI-8226 leukemia. The TGI with SK-MEL-5 melanoma is 3.12 µM and 3.06 µM and 3.01 µM; in the experiment on EKVX NSCLC, 3.43 µM and 3.06 µM and 3.42 µM; in the experiment with M14 melanoma, 3.04 µM and 3.24 µM and 3.14 µM; in the experiment with K-562 leukemia, 3.61 µM; with RXF 393 renal, 3.27 µM and 3.28 µM and 2.91 µM; in the experiment on A549 NSCLC it was 3.26 µM and 3.03 µM and 3.27 µM. In addition, the TGI with LOX IMVI melanoma is 3.24 µM and 3.28 µM and 3.23 µM; with HOP-92 NSCLC, 2.55 µM and 2.64 µM and 2.58 µM; in the experiment on MDA-MB-435 it was 2.97 µM and 3.19 µM and 3.09 µM; in the experiment with RPMI-8226 leukemia, 4.19 µM.

Regarding `CCCCCCCCN=C(NCCCCCCCC)SCc1cccc2ccccc12`, the GI50 in the experiment on SK-MEL-5 melanoma was 1.47 µM; in the experiment with EKVX NSCLC it was 1.79 µM; in the experiment on M14 melanoma, 1.44 µM; in the experiment on K-562 leukemia, 0.975 µM; in the experiment with RXF 393 renal, 1.42 µM; in the experiment on A549 NSCLC, 1.67 µM. The GI50 with LOX IMVI melanoma was 1.59 µM; in the experiment with HOP-92 NSCLC, 1.03 µM; with MDA-MB-435, 1.58 µM; with RPMI-8226 leukemia it was 2.05 µM. Besides, the TGI in the experiment with SK-MEL-5 melanoma is 2.8 µM; in the experiment with EKVX NSCLC, 3.49 µM; with M14 melanoma, 2.86 µM; with K-562 leukemia it was 3.26 µM; with RXF 393 renal it was 2.78 µM; in the experiment on A549 NSCLC, 3.13 µM. Also, the TGI stood at 3.08 µM with LOX IMVI melanoma, 2.28 µM in the experiment with HOP-92 NSCLC, 3.03 µM with MDA-MB-435 and 4.4 µM with RPMI-8226 leukemia.

Take `C=C(C)C(=O)Nc1ccc(-c2c(-c3ccc(Oc4nccc(C)n4)c(F)c3)c3c(N)ncnc3n2C)cc1`: the GI50 in the experiment with SK-MEL-5 melanoma was 2.36 µM; with EKVX NSCLC, 3.43 µM; in the experiment with M14 melanoma it was 5.64 µM; in the experiment with K-562 leukemia it was 3.43 µM; with RXF 393 renal it was 0.0946 µM; with A549 NSCLC, 3.6 µM. In addition, the GI50 was 2.61 µM in the experiment with LOX IMVI melanoma, 2.83 µM in the experiment on HOP-92 NSCLC, 7.19 µM in the experiment on MDA-MB-435 and 2.74 µM with RPMI-8226 leukemia. The TGI in the experiment on SK-MEL-5 melanoma was 8.21 µM; in the experiment on EKVX NSCLC it was 17.1 µM; in the experiment with M14 melanoma, 20 µM; in the experiment with K-562 leukemia, > 100 µM; in the experiment on RXF 393 renal it was 0.984 µM; in the experiment with A549 NSCLC it was 18.5 µM. For the same molecule, the TGI amounted to 12.8 µM with LOX IMVI melanoma, 32.3 µM in the experiment on HOP-92 NSCLC, 21.3 µM with MDA-MB-435 and 17.3 µM in the experiment with RPMI-8226 leukemia.

Consider `COc1ccc2c(c1)/C(=N/OC(C)=O)c1c-2c(OC)nc2ccccc12`, for which the GI50 in the experiment with SK-MEL-5 melanoma was > 100 µM; in the experiment on EKVX NSCLC, > 100 µM; in the experiment on M14 melanoma, > 100 µM; in the experiment on K-562 leukemia it was > 100 µM; in the experiment on RXF 393 renal it was 77.7 µM; in the experiment with A549 NSCLC it was > 100 µM. For the same molecule, the GI50 was > 100 µM with LOX IMVI melanoma, 22.5 µM in the experiment with HOP-92 NSCLC, > 100 µM in the experiment on MDA-MB-435 and > 100 µM in the experiment with RPMI-8226 leukemia. The TGI in the experiment on SK-MEL-5 melanoma, in the experiment on EKVX NSCLC, in the experiment with M14 melanoma, with K-562 leukemia, in the experiment with RXF 393 renal and in the experiment with A549 NSCLC was > 100 µM throughout. The TGI is > 100 µM in the experiment with LOX IMVI melanoma, 82.3 µM in the experiment with HOP-92 NSCLC, > 100 µM in the experiment on MDA-MB-435 and > 100 µM in the experiment on RPMI-8226 leukemia.

In the case of `COC(=O)c1cc(-c2ccc(S(C)(=O)=O)cc2)[nH]c1N/N=C/c1c(Cl)cccc1Cl`, the GI50 was 0.427 µM in the experiment on SK-MEL-5 melanoma; 1.11 µM in the experiment on EKVX NSCLC; 0.624 µM in the experiment with M14 melanoma; 1.87 µM with K-562 leukemia; 1.04 µM in the experiment with RXF 393 renal; 0.656 µM in the experiment on A549 NSCLC. The GI50 in the experiment on LOX IMVI melanoma was 1.61 µM; with HOP-92 NSCLC it was 0.845 µM; in the experiment on MDA-MB-435, 0.214 µM; in the experiment with RPMI-8226 leukemia, 0.491 µM. Besides, the TGI in the experiment on SK-MEL-5 melanoma was 14.5 µM; in the experiment on EKVX NSCLC, > 76.1 µM; in the experiment on M14 melanoma, 9.77 µM; in the experiment with K-562 leukemia, > 100 µM; with RXF 393 renal, > 100 µM; in the experiment with A549 NSCLC it was > 39.4 µM. Besides, the TGI is > 100 µM with LOX IMVI melanoma, > 28.2 µM in the experiment with HOP-92 NSCLC, 0.578 µM with MDA-MB-435 and > 39.1 µM with RPMI-8226 leukemia.

As for `COC(=O)c1cc2cc(/C=C3/SC(=S)N(N(C(C)=O)C(C)=O)C3=O)oc2n1Cc1ccccc1`, the GI50 was 25.7 µM with SK-MEL-5 melanoma; 31 µM in the experiment with EKVX NSCLC; 11 µM in the experiment with M14 melanoma; 22.7 µM with K-562 leukemia; 22 µM with RXF 393 renal; 18.1 µM in the experiment on A549 NSCLC. Also, the GI50 in the experiment with LOX IMVI melanoma is 13.9 µM; with HOP-92 NSCLC it was 44 µM; in the experiment with MDA-MB-435, 29 µM; in the experiment on RPMI-8226 leukemia, 29.4 µM. Besides, the TGI in the experiment with SK-MEL-5 melanoma is 62.7 µM; with EKVX NSCLC, > 100 µM; with M14 melanoma it was 40.6 µM; in the experiment on K-562 leukemia, 53.7 µM; with RXF 393 renal it was 56.7 µM; in the experiment with A549 NSCLC, 45.9 µM. For the same molecule, the TGI is 31.4 µM in the experiment with LOX IMVI melanoma, > 100 µM with HOP-92 NSCLC, > 100 µM in the experiment on MDA-MB-435 and > 100 µM with RPMI-8226 leukemia.

In the case of `CC1(C)C(=O)/C=C\C(=O)C(C)(C)C(=O)/C=C\C(=O)C(C)(C)C2=CC=C(O2)C(C)(C)C(=O)/C=C\C1=O`, the TGI in the experiment with SK-MEL-5 melanoma was 21.2 µM; in the experiment on EKVX NSCLC it was 11.6 µM; in the experiment on M14 melanoma, 5.63 µM; in the experiment on K-562 leukemia it was > 46.9 µM; with RXF 393 renal, 4.73 µM; with A549 NSCLC it was 49.7 µM. For the same molecule, the TGI in the experiment on LOX IMVI melanoma is 13 µM; in the experiment with HOP-92 NSCLC it was 3.9 µM; with MDA-MB-435 it was 29.3 µM; in the experiment with RPMI-8226 leukemia, 3.17 µM.
